This is an account of results in paper PMC10747733, “N-Substituted 2-(Benzenosulfonyl)-1-Carbotioamide Derivatives Exert Antimicrobial and Cytotoxic Effects via Aldehyde Dehydrogenase Pathway: Synthesis, In Silico and In Vitro Studies” (Pharmaceuticals, 2023).

What all share (format): cell-based
The subject of series [1] is Staphylococcus aureus ATCC 43300. Nature of the series: Broth microdilution antimicrobial activity. The note with it: Staphylococcus aureus ATCC 43300. From the text: (§1) Reference strains of microorganisms that came from American Type Culture Collection (ATCC) (Manassas, VA, USA) were used for this study. The representative Gram-positive bacteria were as follows: Staphylococcus aureus ATCC 25923, Staphylococcus aureus ATCC 29213, Staphylococcus aureus ATCC 43300, Staphylococcus epidermidis ATCC 12228, Enterococcus faecalis ATCC 29212, Micrococcus luteus ATCC 10240, Bacillus subtilis ATCC 6633 and Bacillus cereus ATCC 10876. While, those of Gram-negative bacteria were as follows: Bordetella bronchiseptica ATCC 4617, Escherichia coli ATCC 25922, Klebsiella pneumoniae ATCC 13883, Proteus mirabilis ATCC 12453, Salmonella Typhimurium ATCC 14028 and Pseudomonas aeruginosa ATCC 9027. Moreover, the following fungi belonging to yeasts were used: Candida albicans ATCC 10231, Candida albicans ATCC 2091, Candida parapsilosis ATCC 22019, Candida glabrata ATCC 90030 and Candida krusei ATCC 14243.
(§2) The new compounds WZ1–WZ4 were assayed for both antibacterial and antifungal activity using the broth microdilution method in accordance with the European Committee on Antimicrobial Susceptibility Testing (EUCAST) and Clinical and Laboratory Standards Institute (CLSI) guidelines. The microorganisms were grown at 35 °C for 18–24 h on appropriate media (nutrient agar and Sabouraud for bacteria and fungi, respectively) (BioMaxima S.A., Lublin, Poland). Next, microbial suspensions with an optical density of 0.5 McFarland standard scale (in sterile 0.85% NaCl) were prepared. In turn, the tested compounds were initially diluted at 50 mg/mL in dimethyl sulfoxide (DMSO) and the broth microdilution method was used to assess their minimum inhibitory concentrations (MICs). For these studies, selective broth Mueller-Hinton (MH) (BioMaxima S.A., Lublin, Poland) and RPMI (Roswell Park Memorial Institute) 1640 with MOPS (3-(N-Morpholino)propanesulfonic acid) (Sigma-Aldrich Chemicals, St. Louis, MO, USA) were used for bacteria and fungi, respectively. The antimicrobial effect of compounds WZ1–WZ4 was determined in the concentration range from 2000 to 0.98 µg/mL.
(§3) Then, the microbial suspensions were introduced into each well of the microplate and incubated for 18–24 h at 35 °C. […] The reference drugs ciprofloxacin or vancomycin (against bacteria) and nystatin (against fungi) (Sigma-Aldrich Chemicals, St. Louis, MO, USA) were also used. Next, the values of the minimum bactericidal concentration (MBC) and minimum fungicidal concentration (MFC) of WZ1–WZ4 were assessed. For this purpose, the cultures from each MIC determination well were transferred to a suitable solid medium and incubated under appropriate conditions. The lowest concentrations of compounds without microbial growth were read as MBC or MFC. The studies were performed in triplicate and representative data were gathered.
(§4) In turn, the MBC/MIC or MFC/MIC ratios were used to assess bactericidal/fungicidal (MBC/MIC or MFC/MIC ≤ 4) and bacteriostatic/fungistatic (MBC/MIC or MFC/MIC > 4) effect of these compounds [93].

In series [2] the test system is Staphylococcus aureus ATCC 29213. Nature of the series: Broth microdilution antimicrobial activity. Conditions: Staphylococcus aureus ATCC 29213.
From the text: as §1, §2, §3, §4

In series [3] the test system is Staphylococcus aureus ATCC 25923. Nature of the series: Broth microdilution antimicrobial activity.
From the text: as §1, §2, §3, §4
Background: Broth dilution looks for growth in wells or tubes with falling amounts of substance.

The test system of series [4] is Bordetella bronchiseptica ATCC 4617. Nature of the series: Broth microdilution antimicrobial activity.
From the text: as §1, §2, §3, §4

In series [5] the test system is Bacillus subtilis ATCC 6633. Nature of the series: Broth microdilution antimicrobial activity.
From the text: as §1, §2, §3, §4

Series [6] concerns Micrococcus luteus ATCC 10240. Nature of the series: Broth microdilution antimicrobial activity.
From the text: as §1, §2, §3, §4

In series [7] the test system is Escherichia coli ATCC 25922. Nature of the series: Broth microdilution antimicrobial activity.
From the text: as §1, §2, §3, §4

Series [8] has as its system Proteus mirabilis ATCC 12453. Nature of the series: Broth microdilution antimicrobial activity.
From the text: as §1, §2, §3, §4

Series [9] concerns Staphylococcus epidermidis ATCC 12228. Nature of the series: Broth microdilution antimicrobial activity.
From the text: as §1, §2, §3, §4

In series [10] the test system is Salmonella Typhimurium ATCC 14028. Nature of the series: Broth microdilution antimicrobial activity.
From the text: as §1, §2, §3, §4

In series [11] the test system is Bacillus cereus ATCC 10876. Nature of the series: Broth microdilution antimicrobial activity.
From the text: as §1, §2, §3, §4

Series [12] has as its system Klebsiella pneumoniae ATCC 13883. Nature of the series: Broth microdilution antimicrobial activity.
From the text: as §1, §2, §3, §4

Series [13] relates to Pseudomonas aeruginosa ATCC 9027. Nature of the series: Broth microdilution antimicrobial activity.
From the text: as §1, §2, §3, §4

Series [14] has as its system Candida albicans ATCC 10231. Nature of the series: Broth microdilution antimicrobial activity.
From the text: as §1, §2, §3, §4

The subject of series [15] is Candida parapsilosis ATCC 22019. Nature of the series: Broth microdilution antimicrobial activity.
From the text: as §1, §2, §3, §4

The subject of series [16] is Candida glabrata ATCC 90030. Nature of the series: Broth microdilution antimicrobial activity.
From the text: as §1, §2, §3, §4

Series [17] concerns Candida krusei ATCC 14243. Nature of the series: Broth microdilution antimicrobial activity.
From the text: as §1, §2, §3, §4

Series [18] has as its system Candida albicans ATCC 2091. Nature of the series: Broth microdilution antimicrobial activity.
From the text: as §1, §2, §3, §4

For series [19], the system named is Enterococcus faecalis ATCC 29212. Nature of the series: Broth microdilution antimicrobial activity. The note with it: Enterococcus faecalis ATCC 29212.
From the text: as §1, §2, §3, §4

Series [20] relates to Erythrocytes from fresh sheep blood. Nature of the series: in vitro. How it is done:
The toxicity of WZ1–WZ4 compounds towards red blood cells was tested using the erythrocyte lysis assay (ELA). Erythrocytes from fresh sheep blood (BioMaxima S.A., Poland) were centrifuged and washed with 0.85% NaCl. Next, 100 μL of a 2% suspension of red blood cells in physiological saline was added to the wells of microtiter plate. The double dilutions of compounds WZ1–WZ4 were prepared in the range of 2000–15.62 μg/mL. Appropriate controls were used to assess the hemolytic potential of tested compounds, i.e., 100% lysis of erythrocytes using 4% Triton X-100 (Pol-Aura, Różnowo, Poland) and 0% lysis in saline solution. Next, all sample plates were incubated (1 h at 37 °C), centrifuged for 10 min to separate unlysed red blood cells, and the supernatant was placed in a new plate. The ELA is a biological test by which the lytic response can be measured spectrophotometrically (at a wavelength of 450 nm) by the amount of hemoglobin released. The hemolysis percentage was calculated according to the following equation:(1) % Hemolysis = A450 of test compound treated sample − A450 of buffer treated sample/A450 of 4% Triton X100 treated samples − A450 of buffer treated sample × 100

Values after ≈ are worked out from the molar mass of the structure shown.

As for `O=C(O)c1cn(C2CC2)c2cc(N3CCNCC3)c(F)cc2c1=O` [CIP, ciprofloxacin, reference compound], the MBC in [1] (ATCC43300) was found to be 0.24 µg/mL (≈ 0.724 µM); in series [2] (ATCC29213), 0.48 µg/mL (≈ 1.45 µM); in [3] (ATCC25923), 0.48 µg/mL (≈ 1.45 µM); in series [4] (ATCC4617), 0.98 µg/mL (≈ 2.96 µM); in [5] (ATCC6633), 0.03 µg/mL (≈ 0.0905 µM); in series [6] (ATCC10240), 1.95 µg/mL (≈ 5.89 µM). The MBC in series [7] (ATCC25922) turned out to be 0.008 µg/mL (≈ 0.0241 µM); in series [8] (ATCC12453) it was 0.03 µg/mL (≈ 0.0905 µM); in [9] (ATCC12228) it was 0.12 µg/mL (≈ 0.362 µM); in series [10] (Salmonella enterica), 0.06 µg/mL (≈ 0.181 µM); in series [11] (ATCC10876) it was 0.12 µg/mL (≈ 0.362 µM); in series [12] (ATCC13883), 0.24 µg/mL (≈ 0.724 µM). In [13] (ATCC9027), this compound registered an MBC of 0.98 µg/mL (≈ 2.96 µM). The MIC in [1] (ATCC43300) was found to be 0.24 µg/mL (≈ 0.724 µM); in [2] (ATCC29213), 0.48 µg/mL (≈ 1.45 µM); in series [3] (ATCC25923) it was 0.48 µg/mL (≈ 1.45 µM); in series [4] (ATCC4617), 0.98 µg/mL (≈ 2.96 µM); in [5] (ATCC6633), 0.03 µg/mL (≈ 0.0905 µM); in series [6] (ATCC10240) it was 0.98 µg/mL (≈ 2.96 µM). Besides, the MIC came to 0.004 µg/mL (≈ 0.0121 µM) in series [7] (ATCC25922); 0.03 µg/mL (≈ 0.0905 µM) in series [8] (ATCC12453); 0.12 µg/mL (≈ 0.362 µM) in series [9] (ATCC12228); 0.06 µg/mL (≈ 0.181 µM) in series [10] (Salmonella enterica); 0.06 µg/mL (≈ 0.181 µM) in series [11] (ATCC10876); 0.12 µg/mL (≈ 0.362 µM) in [12] (ATCC13883). Moreover, the MIC in series [13] (ATCC9027) was 0.48 µg/mL (≈ 1.45 µM). Further, the MBC/MIC in series [1] is 1; in [2] it was 1; in series [3], 1; in series [4] it was 1; in series [5], 1; in series [6], 2. Moreover, the MBC/MIC in [7] turned out to be 2; in [8], 1; in series [9], 1; in series [10] it was 1; in series [11] it was 2; in series [12], 2. For the same compound, in [13], the MBC/MIC turned out to be 2.

Consider `C[C@@H]1[C@H](O)[C@@H](C)/C=C/C=C/CC/C=C/C=C/C=C/C=C/C(O[C@H]2O[C@H](C)[C@@H](O)[C@H](N)[C@@H]2O)CC2O[C@](O)(CC(O)C(O)CCC(O)CC(O)CC(O)CC(=O)O[C@H]1C)CC(O)C2C(=O)O` (stereo partly shown) [NY, nystatin, reference compound], for which the MFC in series [14] is listed as 0.48 µg/mL (≈ 0.518 µM); in series [15] it was 0.48 µg/mL (≈ 0.518 µM); in series [16], 0.48 µg/mL (≈ 0.518 µM); in series [17], 0.24 µg/mL (≈ 0.259 µM); in series [18] it was 0.24 µg/mL (≈ 0.259 µM). For the same compound, the MFC/MIC in series [14] amounted to 1; in [15] it was 2; in series [16] it was 2; in series [17], 1; in [18] it was 1. Besides, the minimum inhibitory concentration (MIC) in [14] came out at 0.48 µg/mL (≈ 0.518 µM); in series [15], 0.24 µg/mL (≈ 0.259 µM); in series [16], 0.24 µg/mL (≈ 0.259 µM); in series [17], 0.24 µg/mL (≈ 0.259 µM); in [18] it was 0.24 µg/mL (≈ 0.259 µM).

Consider `CN[C@H](CC(C)C)C(=O)N[C@H]1C(=O)N[C@@H](CC(N)=O)C(=O)N[C@H]2C(=O)N[C@H]3C(=O)N[C@H](C(=O)N[C@H](C(=O)O)c4cc(O)cc(O)c4-c4cc3ccc4O)[C@H](O)c3ccc(c(Cl)c3)Oc3cc2cc(c3O[C@@H]2O[C@H](CO)[C@@H](O)[C@H](O)[C@H]2O[C@H]2C[C@](C)(N)[C@H](O)[C@H](C)O2)Oc2ccc(cc2Cl)[C@H]1O` [VA, vancomycin, reference compound], for which, in series [19], the MBC was 1.95 µg/mL (≈ 1.35 µM), the MBC/MIC was 2 and it took 0.98 µg/mL (≈ 0.676 µM) to inhibit growth (MIC).

For the compound Triton X-100 [reference compound], in [20], the erythrocyte lysis was found to be 100%.

Broadly, the MBC is the lowest tested concentration that kills the bacteria rather than only halting them. Read a high MBC as less potent killing. One may read the MIC as the lowest concentration found to suppress growth. A lower MIC goes with greater potency. Usually MFC stands for the smallest concentration meeting the test's criterion for killing the fungus. Read a high MFC as less potent killing.
